Test results published in paper PMC9387934, “Randomized single oral dose phase 1 study of safety, tolerability, and pharmacokinetics of Iminosugar UV-4 Hydrochloride (UV-4B) in healthy subjects” (PLoS Neglected Tropical Diseases, 2022).
Where a name gives a salt, the structure may show the parent alone. Read-outs that look alike come from different tables or passages of the source.

What was measured:
[1] = test system: CYP2E1; set-up: method as in Investigator’s Brochure (IB); details: in vitro; ref Investigator’s Brochure (IB); cited from earlier work
[2] = 14-day GLP toxicology study in dogs (UV4-COV-0035); type: in vivo, dog
Experimental: Fourteen-day studies were conducted in mice and dogs. In dogs at 2 mg/kg/dose TID (6 mg/kg/day), there were mild decreases in platelets (PLT), increases in aspartate aminotransferase (AST) (up to 2.8 x baseline [BL]); and a decrease in thymus weight with lymphocyte depletion. Therefore, this dose exceeded the NOEL. At the no observed adverse event level (NOAEL) of 10 mg/kg/dose TID (30 mg/kg/day), there was an increase in the occurrence of poorly formed and liquid feces; decrease in PLT count and increase in activated partial thromboplastin time (aPTT) (2.2 x BL); increase in AST (up to 9.7 x BL) and alanine aminotransferase (ALT) (up to 2.9 x BL) with an inverted AST/ALT ratio; and a decrease in […]
lymphocyte depletion (no cellular debris was noted, however). The inverted AST/ALT ratio and lymphocyte depletion were reversible. Thymus weight decrease in females was reversible but thymus weight decreases in males were not. However, because the apparent […]
microscopic thymus findings, thymus weight differences at the recovery necropsy were considered not toxicologically important. […]
ng•h/mL, respectively. Daily exposure at NOAEL [calculated as 3 x AUC(0-8)] is estimated at 163,305 ng•h/mL. […]
Daily exposure [calculated as 3 x AUC(0-8)] is estimated at 32,820 ng•h/mL. […]

[3] = Reproductive toxicity upper limit study in rats, 12 days; type: in vivo, rat; details: 50 mg/kg/day
Experimental: 7. Reproductive toxicity:
UV-4B has been evaluated for developmental and reproductive toxicity in fertility and early embryonic development in rats, embryo-fetal development in rats and rabbits, and pre- and postnatal development in rats. In male and female rats given UV-4B at 8, 20, and 50 mg/kg/day before mating and continuing through Gestation Day 13, a […]
observed at 50 mg/kg/day. […]
count but following a 21-week treatment-free period there was complete recovery in pregnancy and fertility indices However, decrease in testicular weight, sperm motility […]
identify the upper limit of reproductive toxicity, a dose of 50 mg/kg/day for 12 […]
In a study designed to identify the upper limit of reproductive toxicity, a dose of 50 […]
rabbit offspring. The rat and rabbit doses are equivalent to 486 and 966 mg/day, […]
In summary, findings that have been identified in the UV-4B toxicology studies so far include effects on the GI tract (including ulcers/erosions), lymphocytes and lymphoid tissue, reduction in PLT count, and increases in transaminases (AST>ALT). Findings were generally consistent across mouse, dog, and rat, apart from the isolated finding of swollen paws/legs and perioral appearance and red skin which was seen only in the rat. […]

[4] = test system: DENV-2 S221; details: ref Investigator’s Brochure (IB), cited from earlier work
[5] = ICH accelerated stability storage condition; cited from earlier work
[6] = dog; cited from earlier work
[7] = in vitro; ref Investigator’s Brochure (IB); cited from earlier work
[8] = test system: cultured human lymphocytes; details: in vitro; ref Investigator’s Brochure (IB); cited from earlier work
[9] = oral, first dose 1 hour before infection, TID for 7 days

COCCCCCCCCCN1C[C@H](O)[C@@H](O)[C@H](O)[C@H]1CO [UV-4, N-(9’-methoxynonyl)-1-deoxynojirimycin]
Direct inhibition of CYP2E1 [1]: No clinically relevant direct inhibition

COCCCCCCCCCN1C[C@H](O)[C@@H](O)[C@H](O)[C@H]1CO [UV-4B, N-(9’-methoxynonyl)-1-deoxynojirimycin hydrochloride]
AUC(0-t) ([2]; both sexes, dog, in vivo, 30 mg/kg/day, dogs, at NOAEL 30 mg/kg/day, read-out: Daily exposure [3 x AUC(0-8)]): 32800 ng·h/mL | HED of the lowest dose tested in dogs ([2]; from 2 mg/kg TID): 67 mg TID | Human equivalent of the rat dose [3]: 486 mg/day | 50% effective dose [4, 9]: 5 mg/kg TID | Minimal effective dose (90% survival rate) [4, 9]: 10 mg/kg TID | 50% effective dose ([4]; step-wise minimal effective dose and therapeutic window studies, start 24 or 48 hours after infection): 20 mg/kg TID | Stability trend of drug substance batches [5]: increases in water content | Dose with decreased PLTs [6]: 2 mg/kg/dose, TID | Dose with decreased arterial pulse pressure [6]: > 50 mg/kg | Dose with decreased reticulocytes [6]: 10 mg/kg/dose, TID | Dose with decreased systolic pressure [6]: > 50 mg/kg | Dose with decreased thymus weight [6]: ≥ 2 mg/kg/dose, TID | Dose with increased ALT [6]: ≥ 2 mg/kg/dose, TID | Dose with increased AST [6]: ≥ 2 mg/kg/dose, TID | Dose with increased aPTT [6]: ≥ 10 mg/kg/dose, TID | Dose with increased diastolic pressure [6]: > 50 mg/kg | Dose with inverted AST/ALT ratio [6]: 10 mg/kg/dose, TID | Dose with lymphocyte depletion in thymus, spleen, lymph nodes, and GALT [6]: ≥ 2 mg/kg/dose, TID | Dose with nonformed feces [6]: ≥ 10 mg/kg/dose, TID | Dose with salivation and vomitus [6]: 60 mg/kg/dose, TID | Neurologic Effects [6]: none observed | Mutagenicity, Ames bacterial reverse mutation (two assays) [7]: not found to be mutagenic or clastogenic | Clastogenicity, chromosomal aberration in cultured human lymphocytes [8]: not found to be mutagenic or clastogenic
